Measurements as given in paper PMC7307930, “Stereoselective Activity of 1-Propargyl-4-styrylpiperidine-like Analogues That Can Discriminate between Monoamine Oxidase Isoforms A and B” (Journal of Medicinal Chemistry, 2020).

Tested on: SH-SY5Y cells
Assay: MTS cytotoxicity assay
Settings: 24 h, 5 μM and 10 μM

Row | Compound | cytotoxic effects
1 | C#CCN1CCC(/C=C/c2ccc(F)cc2)CC1 [Compound 1, (E)-4-(4-Fluorostyryl)-1-(prop-2-yn-1-yl)piperidine] | no significant cytotoxic effects
2 | C#CCN1CCC(CCc2ccc(C(C)C)cc2)CC1 [Compound 97, 4-(4-Isopropylphenethyl)-1-(prop-2-yn-1-yl)piperidine] | no significant cytotoxic effects
3 | C#CCN1CCC(CCc2ccc(C#N)cc2)CC1 [Compound 102, 4-(2-(1-(Prop-2-yn-1-yl)piperidin-4-yl)ethyl)benzonitrile] | no significant cytotoxic effects

Target: T1, hMAO-A (Homo sapiens, UniProt P21397)
T1 construct: purchased Sigma Aldrich; host or cells: baculovirus-infected insect cells (BTI-TN-5B1-4)
T1 sequence (P21397 1-527): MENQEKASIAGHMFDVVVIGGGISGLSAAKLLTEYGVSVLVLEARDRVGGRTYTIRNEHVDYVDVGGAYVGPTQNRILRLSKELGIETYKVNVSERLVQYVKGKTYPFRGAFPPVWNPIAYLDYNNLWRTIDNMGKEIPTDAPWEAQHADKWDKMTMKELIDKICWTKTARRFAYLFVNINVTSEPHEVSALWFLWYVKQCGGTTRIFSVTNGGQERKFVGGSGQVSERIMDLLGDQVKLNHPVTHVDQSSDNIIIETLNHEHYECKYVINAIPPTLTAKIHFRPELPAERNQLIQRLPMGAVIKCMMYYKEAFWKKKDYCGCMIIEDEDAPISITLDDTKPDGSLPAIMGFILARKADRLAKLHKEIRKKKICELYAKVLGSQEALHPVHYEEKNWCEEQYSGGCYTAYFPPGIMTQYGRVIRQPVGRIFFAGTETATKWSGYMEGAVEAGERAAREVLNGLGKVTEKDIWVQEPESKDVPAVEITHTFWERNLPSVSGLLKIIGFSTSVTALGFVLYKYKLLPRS
Assay: hMAO-A inhibition, HRP–Amplex Red coupled fluorimetric assay
Format: biochemical
Settings: supplement csv; RA at 100 micromolar

Row | Compound | IC50(MAO-A) class
4 | C#CCN1CCCC(/C=C/c2ccc(F)cc2)C1 (racemic) [Compound 19, (±)-(E)-3-(4-Fluorostyryl)-1-(prop-2-yn-1-yl)piperidine] | na (na-not_active(RA_at_100micromolar>50%))
5 | C#CCN1CCCC(/C=C/c2cc(F)c(F)cc2F)C1 (racemic) [Compound 20, (±)-(E)-1-(Prop-2-yn-1-yl)-3-(2,4,5-trifluorostyryl)piperidine] | na (na-not_active(RA_at_100micromolar>50%))
6 | C#CCN1CCCC(CCc2ccc(F)cc2)C1 (racemic) [Compound 23, (±)-3-(4-Fluorophenethyl)-1-(prop-2-yn-1-yl)piperidine] | na (na-not_active(RA_at_100micromolar>50%))
7 | C#CCN1CCCC(CCc2cc(F)c(F)cc2F)C1 (racemic) [Compound 24, (±)-3-(2,4,5-Trifluorophenethyl)-1-(prop-2-yn-1-yl)piperidine] | na (na-not_active(RA_at_100micromolar>50%))
8 | C#CCN1CCC(CCc2ccc(F)cc2)CC1 [Compound 25, 4-(4-Fluorophenethyl)-1-(prop-2-yn-1-yl)piperidine] | na (na-not_active(RA_at_100micromolar>50%))
9 | C#CCN1CCC(CCc2cc(F)c(F)cc2F)CC1 [Compound 26, 1-(Prop-2-yn-1-yl)-4-(2,4,5-trifluorophenethyl)piperidine] | na (na-not_active(RA_at_100micromolar>50%))
10 | C#CCN1CCC(/C=C\c2ccc(C)cc2)CC1 [Compound 75, (Z)-4-(4-Methylstyryl)-1-(prop-2-yn-1-yl)piperidine] | na (na-not_active(RA_at_100micromolar>50%))
11 | C#CCN1CCC(/C=C/c2ccc(C)cc2)CC1 [Compound 76, (E)-4-(4-Methylstyryl)-1-(prop-2-yn-1-yl)piperidine] | na (na-not_active(RA_at_100micromolar>50%))
12 | C#CCN1CCC(/C=C/c2ccc(Br)cc2)CC1 [Compound 81, (E)-4-(4-Bromostyryl)-1-(prop-2-yn-1-yl)piperidine] | na (na-not_active(RA_at_100micromolar>50%))
13 | C#CCN1CCC(/C=C/c2ccc(OC)cc2)CC1 [Compound 82, (E)-4-(4-Methoxystyryl)-1-(prop-2-yn-1-yl)piperidine] | na (na-not_active(RA_at_100micromolar>50%))
14 | C#CCN1CCC(/C=C\c2ccc(C(F)(F)F)cc2)CC1 [Compound 83, (Z)-1-(Prop-2-yn-1-yl)-4-(4-(trifluoromethyl)styryl)piperidine] | na (na-not_active(RA_at_100micromolar>50%))
15 | C#CCN1CCC(/C=C\c2ccc(S(C)(=O)=O)cc2)CC1 [Compound 89, (Z)-4-(4-(Methylsulfonyl)styryl)-1-(prop-2-yn-1-yl)piperidine] | na (na-not_active(RA_at_100micromolar>50%))
16 | C#CCN1CCC(/C=C/c2ccc(S(C)(=O)=O)cc2)CC1 [Compound 90, (E)-4-(4-(Methylsulfonyl)styryl)-1-(prop-2-yn-1-yl)piperidine] | na (na-not_active(RA_at_100micromolar>50%))
17 | C#CCN1CCC(CCc2ccc(C)cc2)CC1 [Compound 96, 4-(4-Methylphenethyl)-1-(prop-2-yn-1-yl)piperidine] | na (na-not_active(RA_at_100micromolar>50%))
18 | C#CCN1CCC(CCc2ccc(Cl)cc2)CC1 [Compound 98, 4-(4-Chlorophenethyl)-1-(prop-2-yn-1-yl)piperidine] | na (na-not_active(RA_at_100micromolar>50%))
19 | C#CCN1CCC(CCc2ccc(OC)cc2)CC1 [Compound 99, 4-(4-Methoxyphenethyl)-1-(prop-2-yn-1-yl)piperidine] | na (na-not_active(RA_at_100micromolar>50%))
20 | C#CCN1CCC(CCc2cccc(C(F)(F)F)c2)CC1 [Compound 101, 1-(Prop-2-yn-1-yl)-4-(3-(trifluoromethyl)phenethyl)piperidine] | na (na-not_active(RA_at_100micromolar>50%))
21 | C#CCN1CCC(/C=C\c2ccc(C(N)=O)cc2)CC1 [Compound 104, (Z)-4-(2-(1-(Prop-2-yn-1-yl)piperidin-4-yl)vinyl)benzamide] | na (na-not_active(RA_at_100micromolar>50%))
22 | C#CCN1CCC(/C=C/c2ccc(C(N)=O)cc2)CC1 [Compound 105, (E)-4-(2-(1-(Prop-2-yn-1-yl)piperidin-4-yl)vinyl)benzamide] | na (na-not_active(RA_at_100micromolar>50%))
23 | C#CCN1CCC(CCc2ccc(C(N)=O)cc2)CC1 [Compound 106, 4-(2-(1-(Prop-2-yn-1-yl)piperidin-4-yl)ethyl)benzamide] | na (na-not_active(RA_at_100micromolar>50%))
24 | C#CCN1CCC(CCc2ccc(O)cc2)CC1 [Compound 107, 4-(2-(1-(Prop-2-yn-1-yl)piperidin-4-yl)ethyl)phenol] | na (na-not_active(RA_at_100micromolar>50%))

Target: T2, 5-HT1A receptor (Rattus norvegicus, UniProt P19327)
T2 construct: from tissue; host or cells: rat (male Wistar) brain cortex membranes
T2 sequence (P19327 1-422): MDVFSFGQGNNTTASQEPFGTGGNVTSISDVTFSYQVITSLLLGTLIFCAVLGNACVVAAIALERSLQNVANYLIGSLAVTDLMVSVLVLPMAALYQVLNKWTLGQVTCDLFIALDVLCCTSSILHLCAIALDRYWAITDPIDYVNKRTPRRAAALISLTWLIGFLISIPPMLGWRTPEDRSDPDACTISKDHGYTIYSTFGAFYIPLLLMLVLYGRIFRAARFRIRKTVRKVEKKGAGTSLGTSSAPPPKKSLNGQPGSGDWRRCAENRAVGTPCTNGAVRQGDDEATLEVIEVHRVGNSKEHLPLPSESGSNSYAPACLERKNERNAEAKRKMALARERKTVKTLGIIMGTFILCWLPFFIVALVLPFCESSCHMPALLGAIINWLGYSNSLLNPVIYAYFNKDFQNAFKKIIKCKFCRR
Assay: [3H]-8-OH-DPAT radioligand binding assay, rat cortex membranes
Settings: [3H]-8-OH-DPAT binding, means ±SEM

Row | Compound | Ki
25 | C#CCN1CCC(CCc2ccc(C#N)cc2)CC1 [Compound 102, 4-(2-(1-(Prop-2-yn-1-yl)piperidin-4-yl)ethyl)benzonitrile] | 8.6 ± 1.7 µM

Same assay, conditions: read-out: Inhibition at 300 µM

Row | Compound | inhibition at 300 µM
26 | C#CCN1CCC(CCc2ccc(C#N)cc2)CC1 [Compound 102, 4-(2-(1-(Prop-2-yn-1-yl)piperidin-4-yl)ethyl)benzonitrile] | 78%

Tested on: Swiss mice
Assay: Tail suspension test
Format: in vivo, mouse
Settings: ip 30 min before; 6, 67 at 3 and 10 mg/kg, 69 at 1, 3, 10, 30 mg/kg, imipramine 30 mg/kg
Method: The antidepressant-like activity was screened with the widely used tail suspension test. At 30 min before the behavioral assays, the mice were treated with 6, 67, and 69 at 3 mg/kg and 10 mg/kg ip, with 69 also at 1 mg/kg and 30 mg/kg ip, or were injected with 0.9% saline as control. Imipramine (30 mg/kg ip) was used as the reference drug.
(A) Effects of acute ip treatment with 6 (3, 10 mg/kg, n = 13, 9), 67 (3, 10 mg/kg, n = 6, 10), and 69 (1, 3, 10, 30 mg/kg, n = 8, 7, 8, 6) and imipramine (30 mg/kg, n = 8) in the tail suspension test. […] (B) Effects of acute ip treatment with 6 (3, 10 mg/kg, n = 8, 8), 67 (1, 3, 6 mg/kg; n = 5, 5, 5), and 69 (1, 3, 6 mg/kg, n = 10, 5, 5) on locomotor activity of the mice. […] (C) Effects of 10-day chronic ip treatment with 69 (0.3 mg/kg, daily; n = 10) in the tail suspension test. Data are mean values ± SEM of the immobility time, compared to control mice (n = 8): ∗∗, p < 0.01 (unpaired t-test). […]
quality control sample every seven test samples. The absolute matrix effect was checked by comparing the analyte responses in the standard solutions to the samples spiked in the tissue incubation medium from the control experiment without the analyte, and a deviation of less than ±20% was deemed acceptable.
4.2.10In vitro radioligand binding assay
Rats were humanely killed by decapitation and their brains were removed, washed and rapidly dissected on ice. Homogenisation was performed using a homogeniser (PRO Scientific Inc) at 30,000 rpm for 1 min. For 5-HT1A binding assays, the cortex tissues were homogenised in 30 volumes/weight ice-cold 50 mM Tris–HCl buffer (pH 7.4), and the homogenate was centrifuged at 40,000× g for 15 min at 0 °C to 4 °C. The resulting pellets were resuspended in 30 volumes/weight of the same buffer, and incubated at 37 °C for 20 min. The centrifugation step was repeated twice under the same conditions as described above, and the final pellets were resuspended in 30 volumes/weight 50 mM Tris–HCl buffer (pH 7.4), and stored at –80 […]
For the [3H]-8-OH-DPAT binding assay (the 5-HT1A receptor binding assay), the membranes were thawed and resuspended in 50 mM Tris–HCl (pH 7.4) with 1 mM MnCl2, to a final protein concentration of 0.5 mg/mL. The incubation was carried out at 25 °C for 1 h in a final volume of 1 mL membrane suspension in the presence of the sample assayed and with 0.2 nM [3H]-8-OH-DPAT (170.2 Ci/mmol). Serotonin was used as the positive control. Non-specific binding was determined in parallel incubations in the presence of serotonin (10 μM).
4.2.11 Tail suspension test
The tail suspension test was carried out according to the methodology proposed by Steru and co-workers.22 The mice were individually suspended by the tail from a metal hook (distance

Row | Compound | immobility time, acute treatment
27 | CN(C)CCCN1c2ccccc2CCc2ccccc21 [imipramine, reference compound] | significantly reduced

Tested on: Swiss mice
Assay: Elevated plus maze test
Format: in vivo, mouse
Settings: acute ip, 1 mg/kg

Row | Compound | Open arm entries (%) | Time in centre (%) | Time in open arms (%) | Total arm entries
28 | CN1C(=O)CN=C(c2ccccc2)c2cc(Cl)ccc21 [Diazepam, reference compound] | 29.9 ±3.2% | 37.6 ±5.8% | 22.3 ±3.1% | 36.0 ±3.2

Tested on: not listed separately
Assay: Thermodynamic solubility in PBS
Format: physicochemical
Settings: PBS (pH 7.4), 37 °C, 24 h, hydrochloride salts

Row | Compound | thermodynamic solubility
29 | C#CCN1CCC(CCc2ccc(C(C)C)cc2)CC1 [Compound 97, 4-(4-Isopropylphenethyl)-1-(prop-2-yn-1-yl)piperidine] | ≥ 14.5 g/250 mL
